# Source: US20210255193A1, “LYSINE REACTIVE PROBES AND USES THEREOF” (The Scripps Research Institute, priority 2017, published 2021)
# Key:
# Assay in all cases: competitive isoTOP-ABPP
# Assay type in all cases: binding
# [1] = molecular target: T1, FECH Ferrochelatase, mitochondrial (Homo sapiens, UniProt P22830); settings: 50 uM, 231 sol, in vitro; for R value (DMSO/fragment) for probe 1 labeling: P22830_K304
# T1 construct: isoTOP-ABPP experiments performed in cell lysates (in vitro); endogenous in cells; host or cells: soluble proteome of human cancer cell lines (MDA-MB-231; Ramos and Jurkat also prepared)
# T1 sequence (P22830 55-423): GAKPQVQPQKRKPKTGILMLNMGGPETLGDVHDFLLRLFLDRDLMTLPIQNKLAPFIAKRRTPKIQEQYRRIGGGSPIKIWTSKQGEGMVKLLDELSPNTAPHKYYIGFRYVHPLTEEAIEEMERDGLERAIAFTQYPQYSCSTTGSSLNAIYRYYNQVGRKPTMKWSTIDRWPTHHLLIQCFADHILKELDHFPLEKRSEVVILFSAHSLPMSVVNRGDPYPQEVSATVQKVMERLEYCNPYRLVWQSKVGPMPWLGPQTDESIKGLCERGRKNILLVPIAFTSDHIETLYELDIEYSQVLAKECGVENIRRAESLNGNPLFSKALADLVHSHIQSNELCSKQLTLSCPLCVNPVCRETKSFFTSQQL
# In short: (§1)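 Probe: STP-alkyne, 0.1 mM, 1 h RT, after fragment pretreatment of lysate (esters 50 μM; guanidinylators 100 μM). Tags: light = compound, heavy = DMSO, via CuAAC. Replicates averaged if SD <60% of mean; otherwise lowest ratio used when any R <4.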
# [2] = molecular target: T2, G6PD Glucose-6-phosphate 1-dehydrogenase (Homo sapiens, UniProt P11413); settings: 50 uM, in vitro; for R value (DMSO/fragment) for probe 1 labeling: P11413_K171; for R value (DMSO/fragment) for probe 1 labeling / isoTOP-ABPP reactivity ratio at lysine P11413_K171: 231 sol; for isoTOP-ABPP ratio (R) at liganded lysine P11413_K171: sol, 231
# T2 construct: isoTOP-ABPP experiments performed in cell lysates (in vitro); endogenous in cells; host or cells: MDA-MB-231 soluble lysate
# T2 sequence (P11413 whole entry, the tested form may be a part): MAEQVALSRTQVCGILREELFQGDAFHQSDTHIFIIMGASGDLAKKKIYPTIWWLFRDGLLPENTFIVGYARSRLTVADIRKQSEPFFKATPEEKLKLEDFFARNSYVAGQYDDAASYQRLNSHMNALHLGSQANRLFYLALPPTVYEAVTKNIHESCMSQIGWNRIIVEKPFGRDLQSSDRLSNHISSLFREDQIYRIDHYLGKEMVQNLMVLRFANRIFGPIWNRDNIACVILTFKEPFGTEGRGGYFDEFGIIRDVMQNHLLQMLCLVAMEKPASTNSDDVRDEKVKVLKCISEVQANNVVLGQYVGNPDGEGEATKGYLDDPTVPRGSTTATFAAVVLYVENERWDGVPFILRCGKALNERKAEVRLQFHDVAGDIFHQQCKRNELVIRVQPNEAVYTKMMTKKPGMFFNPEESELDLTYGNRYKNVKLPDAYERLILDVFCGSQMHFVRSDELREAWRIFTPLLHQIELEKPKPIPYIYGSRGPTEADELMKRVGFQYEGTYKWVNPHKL
# In short: as §1
# OLA1 Obg-like ATPase 1 = molecular target: T3, OLA1 Obg-like ATPase 1 (Homo sapiens, UniProt Q9NTK5); settings: 50 uM, in vitro; for R value (DMSO/fragment) for probe 1 labeling: Q9NTK5_K248; for R value (DMSO/fragment) for probe 1 labeling / isoTOP-ABPP reactivity ratio at lysine Q9NTK5_K248: 231 sol; for isoTOP-ABPP ratio (R) at liganded lysine Q9NTK5_K248: sol, 231
# T3 construct: endogenous in cells; host or cells: MDA-MB-231 (soluble fraction of lysate)
# In short: as §1
# [3] = molecular target: T4, PFKL 6-phosphofructokinase, liver type (Homo sapiens, UniProt P17858); settings: 50 uM, in vitro; for R value (DMSO/fragment) for probe 1 labeling / isoTOP-ABPP reactivity ratio at lysine P17858_K315 / isoTOP-ABPP reactivity ratio at lysine P17858_K677 / isoTOP-ABPP reactivity ratio at lysine P17858_K715: 231 sol; for isoTOP-ABPP ratio (R) at liganded lysine P17858_K677 / isoTOP-ABPP ratio (R) at liganded lysine P17858_K715 / isoTOP-ABPP ratio (R) at liganded lysine P17858_K315: sol, 231
# T4 construct: isoTOP-ABPP experiments performed in cell lysates (in vitro); endogenous in cells; host or cells: soluble proteome of human cancer cell lines (MDA-MB-231; Ramos and Jurkat also prepared)
# T4 sequence (P17858 1-780): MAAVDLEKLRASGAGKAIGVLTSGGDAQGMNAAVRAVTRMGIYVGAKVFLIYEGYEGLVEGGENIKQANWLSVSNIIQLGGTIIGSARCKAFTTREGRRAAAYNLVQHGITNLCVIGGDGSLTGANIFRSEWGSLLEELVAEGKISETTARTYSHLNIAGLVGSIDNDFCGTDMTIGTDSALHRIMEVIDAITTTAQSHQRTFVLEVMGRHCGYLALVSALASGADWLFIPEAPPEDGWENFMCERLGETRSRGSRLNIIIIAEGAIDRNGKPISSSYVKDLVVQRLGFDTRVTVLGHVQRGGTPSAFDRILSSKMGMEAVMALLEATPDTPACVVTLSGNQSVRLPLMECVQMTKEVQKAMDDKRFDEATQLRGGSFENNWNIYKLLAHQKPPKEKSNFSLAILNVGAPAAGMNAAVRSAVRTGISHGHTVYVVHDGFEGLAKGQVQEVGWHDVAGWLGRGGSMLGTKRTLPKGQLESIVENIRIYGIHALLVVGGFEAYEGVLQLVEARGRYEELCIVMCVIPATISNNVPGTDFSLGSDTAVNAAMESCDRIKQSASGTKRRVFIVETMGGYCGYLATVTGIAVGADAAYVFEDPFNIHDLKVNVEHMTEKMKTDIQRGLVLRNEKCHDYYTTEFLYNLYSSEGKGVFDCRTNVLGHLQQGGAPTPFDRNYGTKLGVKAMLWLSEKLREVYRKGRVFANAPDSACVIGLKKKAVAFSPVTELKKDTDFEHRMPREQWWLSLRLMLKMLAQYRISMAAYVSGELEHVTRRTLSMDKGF
# In short: as §1
smiles,measurement,setting,value
"O=C(CCc1cn(-c2ccccc2)nc1-c1ccccc1)Oc1c(F)c(F)c(F)c(F)c1F [fragment 19, Pentafluorophenyl 3-(1,3-diphenyl-1H-pyrazol-4-yl)propanoate]",R value (DMSO/fragment) for probe 1 labeling,[1],1.8
same,R value (DMSO/fragment) for probe 1 labeling,[2],0.9
same,R value (DMSO/fragment) for probe 1 labeling,OLA1 Obg-like ATPase 1,1.0
same,R value (DMSO/fragment) for probe 1 labeling,[3]; P17858_K315,1.0
same,R value (DMSO/fragment) for probe 1 labeling,[3]; P17858_K677,1.2
same,R value (DMSO/fragment) for probe 1 labeling,[3]; P17858_K715,1.6
"O=C(Oc1c(F)c(F)c(F)c(F)c1F)C(c1ccccc1)c1ccccc1 [fragment 20, Pentafluorophenyl 2,2-diphenylacetate]",R value (DMSO/fragment) for probe 1 labeling,[1],1.7
same,R value (DMSO/fragment) for probe 1 labeling,[2],0.7
same,R value (DMSO/fragment) for probe 1 labeling,OLA1 Obg-like ATPase 1,0.9
same,R value (DMSO/fragment) for probe 1 labeling,[3]; P17858_K677,18.8
same,R value (DMSO/fragment) for probe 1 labeling,[3]; P17858_K715,1.3
"O=C(Oc1c(F)c(F)c(F)c(F)c1F)c1cc(C(F)(F)F)cc(C(F)(F)F)c1 [fragment 21, Pentafluorophenyl 3,5-bis(trifluoromethyl)benzoate]",R value (DMSO/fragment) for probe 1 labeling,[1],1.0
same,R value (DMSO/fragment) for probe 1 labeling,[2],0.8
same,R value (DMSO/fragment) for probe 1 labeling,OLA1 Obg-like ATPase 1,1.0
same,R value (DMSO/fragment) for probe 1 labeling,[3]; P17858_K677,0.9
same,R value (DMSO/fragment) for probe 1 labeling,[3]; P17858_K715,0.9
"Cn1cc(CC(=O)Oc2c(F)c(F)c(F)c(F)c2F)c2ccccc21 [fragment 22, Pentafluorophenyl 2-(1-methyl-1H-indol-3-yl)acetate]",R value (DMSO/fragment) for probe 1 labeling,[1],2.0
same,R value (DMSO/fragment) for probe 1 labeling,[2],0.7
same,R value (DMSO/fragment) for probe 1 labeling,OLA1 Obg-like ATPase 1,1.0
same,R value (DMSO/fragment) for probe 1 labeling,[3]; P17858_K677,2.7
same,R value (DMSO/fragment) for probe 1 labeling,[3]; P17858_K715,2.9
"COc1cc(CCC(=O)Oc2c(F)c(F)c(F)c(F)c2F)cc(OC)c1OC [fragment 23, Pentafluorophenyl 3-(3,4,5-trimethoxyphenyl)propanoate]",R value (DMSO/fragment) for probe 1 labeling,[2],2.1
same,R value (DMSO/fragment) for probe 1 labeling,OLA1 Obg-like ATPase 1,1.0
same,R value (DMSO/fragment) for probe 1 labeling,[3]; P17858_K677,1.8
same,R value (DMSO/fragment) for probe 1 labeling,[3]; P17858_K715,0.6
"O=C(Oc1c(F)c(F)c(F)c(F)c1F)C1CCN(C(=O)OCc2ccccc2)CC1 [fragment 24, 1-Benzyl 4-(pentafluorophenyl) piperidine-1,4-dicarboxylate]",isoTOP-ABPP reactivity ratio at lysine P22830_K304,[1],1.5
same,isoTOP-ABPP reactivity ratio at lysine P11413_K171,[2],0.9
same,isoTOP-ABPP reactivity ratio at lysine Q9NTK5_K248,OLA1 Obg-like ATPase 1,1.1
same,isoTOP-ABPP reactivity ratio at lysine P17858_K315,[3],0.9
same,isoTOP-ABPP reactivity ratio at lysine P17858_K677,[3],3.3
same,isoTOP-ABPP reactivity ratio at lysine P17858_K715,[3],0.9
"O=C(Oc1c(F)c(F)c(F)c(F)c1F)c1ccc2ccccc2n1 [fragment 25, Pentafluorophenyl quinoline-2-carboxylate]",isoTOP-ABPP reactivity ratio at lysine P22830_K304,[1],1.0
same,isoTOP-ABPP reactivity ratio at lysine P11413_K171,[2],0.8
same,isoTOP-ABPP reactivity ratio at lysine Q9NTK5_K248,OLA1 Obg-like ATPase 1,1.0
same,isoTOP-ABPP reactivity ratio at lysine P17858_K315,[3],0.9
same,isoTOP-ABPP reactivity ratio at lysine P17858_K677,[3],1.6
same,isoTOP-ABPP reactivity ratio at lysine P17858_K715,[3],1.3
"O=C(CCc1coc2cc(F)ccc2c1=O)Oc1c(F)c(F)c(F)c(F)c1F [fragment 26, Pentafluorophenyl 3-(7-fluoro-4-oxo-4H-chromen-3-yl)propanoate]",isoTOP-ABPP reactivity ratio at lysine P22830_K304,[1],1.7
same,isoTOP-ABPP reactivity ratio at lysine P11413_K171,[2],1.0
same,isoTOP-ABPP reactivity ratio at lysine Q9NTK5_K248,OLA1 Obg-like ATPase 1,1.0
same,isoTOP-ABPP reactivity ratio at lysine P17858_K677,[3],20.0
same,isoTOP-ABPP reactivity ratio at lysine P17858_K715,[3],1.5
"O=C(Oc1ccc([N+](=O)[O-])cc1[N+](=O)[O-])C(c1ccccc1)c1ccccc1 [fragment 30, 2,4-Dinitrophenyl 2,2-diphenylacetate]",isoTOP-ABPP reactivity ratio at lysine P11413_K171,[2],3.9
same,isoTOP-ABPP reactivity ratio at lysine Q9NTK5_K248,OLA1 Obg-like ATPase 1,1.0
same,isoTOP-ABPP reactivity ratio at lysine P17858_K315,[3],4.9
same,isoTOP-ABPP reactivity ratio at lysine P17858_K677,[3],20.0
"Cn1cc(CC(=O)Oc2ccc([N+](=O)[O-])cc2[N+](=O)[O-])c2ccccc21 [fragment 32, 2,4-Dinitrophenyl 2-(1-methyl-1H-indol-3-yl)acetate]",isoTOP-ABPP reactivity ratio at lysine P11413_K171,[2],0.9
same,isoTOP-ABPP reactivity ratio at lysine Q9NTK5_K248,OLA1 Obg-like ATPase 1,1.0
same,isoTOP-ABPP reactivity ratio at lysine P17858_K315,[3],20.0
same,isoTOP-ABPP reactivity ratio at lysine P17858_K677,[3],11.9
same,isoTOP-ABPP reactivity ratio at lysine P17858_K715,[3],7.7
"O=C(Oc1ccc([N+](=O)[O-])cc1[N+](=O)[O-])C1CCN(C(=O)OCc2ccccc2)CC1 [fragment 34, 1-Benzyl 4-(2,4-dinitrophenyl) piperidine-1,4-dicarboxylate]",isoTOP-ABPP ratio (R) at liganded lysine P11413_K171,[2],0.9
same,isoTOP-ABPP ratio (R) at liganded lysine Q9NTK5_K248,OLA1 Obg-like ATPase 1,0.9
same,isoTOP-ABPP ratio (R) at liganded lysine P17858_K677,[3],2.8
same,isoTOP-ABPP ratio (R) at liganded lysine P17858_K715,[3],1.3
"O=C(Oc1ccc([N+](=O)[O-])cc1[N+](=O)[O-])c1ccc2ccccc2n1 [fragment 35, 2,4-Dinitrophenyl quinoline-2-carboxylate]",isoTOP-ABPP ratio (R) at liganded lysine P11413_K171,[2],1.7
same,isoTOP-ABPP ratio (R) at liganded lysine Q9NTK5_K248,OLA1 Obg-like ATPase 1,1.0
same,isoTOP-ABPP ratio (R) at liganded lysine P17858_K677,[3],1.5
same,isoTOP-ABPP ratio (R) at liganded lysine P17858_K715,[3],1.3
"O=C(Oc1ccc([N+](=O)[O-])cc1[N+](=O)[O-])c1ccc(-c2ccccc2)cc1 [fragment 37, 2,4-Dinitrophenyl [1,1′-biphenyl]-4-carboxylate]",isoTOP-ABPP ratio (R) at liganded lysine P11413_K171,[2],0.9
same,isoTOP-ABPP ratio (R) at liganded lysine Q9NTK5_K248,OLA1 Obg-like ATPase 1,0.9
same,isoTOP-ABPP ratio (R) at liganded lysine P17858_K315,[3],1.3
same,isoTOP-ABPP ratio (R) at liganded lysine P17858_K677,[3],1.1
same,isoTOP-ABPP ratio (R) at liganded lysine P17858_K715,[3],1.1
"O=C(Oc1ccc([N+](=O)[O-])cc1[N+](=O)[O-])c1ccccc1Nc1cccc(C(F)(F)F)c1 [fragment 40, 2,4-Dinitrophenyl 2-((3-(trifluoromethyl)phenyl)amino)benzoate]",isoTOP-ABPP ratio (R) at liganded lysine P11413_K171,[2],1.9
same,isoTOP-ABPP ratio (R) at liganded lysine Q9NTK5_K248,OLA1 Obg-like ATPase 1,0.9
same,isoTOP-ABPP ratio (R) at liganded lysine P17858_K677,[3],0.9
same,isoTOP-ABPP ratio (R) at liganded lysine P17858_K715,[3],1.1
"CC(C)(C)OC(=O)NCCCC(=O)Oc1ccc([N+](=O)[O-])cc1[N+](=O)[O-] [fragment 41, 2,4-Dinitrophenyl 4-((tert-butoxycarbonyl)amino)butanoate]",isoTOP-ABPP ratio (R) at liganded lysine P11413_K171,[2],1.0
same,isoTOP-ABPP ratio (R) at liganded lysine Q9NTK5_K248,OLA1 Obg-like ATPase 1,1.0
same,isoTOP-ABPP ratio (R) at liganded lysine P17858_K315,[3],2.3
same,isoTOP-ABPP ratio (R) at liganded lysine P17858_K677,[3],5.6
same,isoTOP-ABPP ratio (R) at liganded lysine P17858_K715,[3],2.0
